The results in this text go back to patent US5686458A, “Quinazoline deriviates for treating peptic ulcer” (Yuhan Corporation, priority 1992, dated 1997).

The experiment has as its target T1, H^+ /K^+ ATPase (proton pump), gastric vesicles (Sus scrofa, UniProt P19156).
T1 construct: Gastric vesicles were prepared from pig stomach; from tissue; host or cells: pig stomach, lyophilized gastric vesicles
In words: Determination of H+/K+ ATPase activity, Lineweaver-Burk kinetics versus K+ (Experiment 4-2). The class given is biochemical, pig. Conditions: for Competitive inhibition with K+ at the K+ binding site of proton pump: Lineweaver-Burk plot, KCl 0.1 to 30 mM. As to the method: Gastric vesicles were prepared from pig stomach by the method described in Saccomani G., et al., J. Biol. Chem. 250, 4802-4809 (1975). The vesicles were lyophilized and kept at -70° C. The protein content was determined by the method of Lowry et al., using bovine serum albumin as standard[see Lowry, O. H., Rosebrough, N. J. and Randall, R. J., J. Biol. Chem. 193, 265-275 (1951)].
Test tubes were divided into 4 groups, each having 3 test tubes. As a control group, group 1 was added with the 10 μl of DMSO. Groups 2, 3 and 4 were administered with the compound prepared in example 34 whose final concentration are 0.17 μM, 0.33 μM and 0.67 μM, respectively. Each group was further divided into 3 small groups, in which enzymes were activated by ATP; ATP and Mg^++; and ATP, Mg^++ and K^+, respectively.
To all of the test tubes, were added 100 μl of lyophilized vesicles prepared at the concentration of 25 μg protein/ml and then 90 μl of 5 mM Pipes/Tris buffer pH 7.0. The compound prepared in Example 34 was added to each Group until the final concentration thereof became 0.17, 0.33 or 0.67 μM, respectively, They were preincubated for 15 minutes.
50 μl of ATP(3 mM) was added to each of the four Groups and the 50 μl of MgCl2 (2 mM) was added only to the 2nd and 3rd small groups of all Groups. Further, to the 3rd small groups of all Groups, were added 50 μl of KCl solution of various concentrations(from 0.1 mM to 30 mM) and then 150μl of Pipes/Tris buffer of pH 7.0. To the rest small groups, Pipes/Tris buffer of pH 7.0 was added until the volume became the same as that of the 3rd small group.
The test tube's were incubated at 37° C. for 30 minutes and then the reaction was terminated by adding 25% cold trichloroacetic acid solution. They were centrifuged by means of a microcentrifuge and the supernatant was taken up for the measurement of the released inorganic phosphate content by an automatic analyzer(CIBA CORNING, Express 550).
In accordance with the same procedures as above, except that 15 and 30 μm of omeprazole and 0.75, 1.5 and 3.0 μm of SK&F96067 were used as comparative substances, released inorganic phosphate content was measured.
The released inorganic phosphate contents of the three small groups were considered as the activity of H^+ /K^+ ATPase at each of the concentrations employed. The specific activity of H^+ /K^+ ATPase was calculated from the following equation:
Specific activity=(A-C)-(B-C) . . . (V)
A is the activity of enzyme activated by ATP, Mg^++ and , K^+ ;
B is the activity of enzyme activated by ATP and M^++ and
C is the activity of enzyme activated by ATP.
The specific activity, thus calculated, of Groups 1, 2, 3 and 4 which employed DMSO and the compound of Example 34 at 3 different concentrations were then plotted with respect to the concentration of KCl in FIG. 1 according to the method of Lineweaver-Burk, wherein .box-solid., .quadrature. and .largecircle. represent the respective concentrations of the compound of Example 34 of 0.67 μM, 0.33 μM and 0.17 μM; and .oval-solid. represents concentration of the DMSO compound. FIG. 2 depicts the Lineweaver-Burk plot of the specific activities obtained from SK&F96067, wherein .box-solid., .quadrature. and .largecircle. represent its respective concentrations of 3.0 μM, 1.5 μM, 0.75 μM; and .oval-solid. represents concentration of the DMSO compound. FIG. 3 illustrates the Lineweaver-Burk plot of the specific activities obtained from omeprazole, wherein .oval-solid. and .quadrature. represent its concentrations of 15 μM and 30 μM; and .largecircle. represents the concentration of DMSO.

T1 sequence (P19156 2-1034 limits assumed): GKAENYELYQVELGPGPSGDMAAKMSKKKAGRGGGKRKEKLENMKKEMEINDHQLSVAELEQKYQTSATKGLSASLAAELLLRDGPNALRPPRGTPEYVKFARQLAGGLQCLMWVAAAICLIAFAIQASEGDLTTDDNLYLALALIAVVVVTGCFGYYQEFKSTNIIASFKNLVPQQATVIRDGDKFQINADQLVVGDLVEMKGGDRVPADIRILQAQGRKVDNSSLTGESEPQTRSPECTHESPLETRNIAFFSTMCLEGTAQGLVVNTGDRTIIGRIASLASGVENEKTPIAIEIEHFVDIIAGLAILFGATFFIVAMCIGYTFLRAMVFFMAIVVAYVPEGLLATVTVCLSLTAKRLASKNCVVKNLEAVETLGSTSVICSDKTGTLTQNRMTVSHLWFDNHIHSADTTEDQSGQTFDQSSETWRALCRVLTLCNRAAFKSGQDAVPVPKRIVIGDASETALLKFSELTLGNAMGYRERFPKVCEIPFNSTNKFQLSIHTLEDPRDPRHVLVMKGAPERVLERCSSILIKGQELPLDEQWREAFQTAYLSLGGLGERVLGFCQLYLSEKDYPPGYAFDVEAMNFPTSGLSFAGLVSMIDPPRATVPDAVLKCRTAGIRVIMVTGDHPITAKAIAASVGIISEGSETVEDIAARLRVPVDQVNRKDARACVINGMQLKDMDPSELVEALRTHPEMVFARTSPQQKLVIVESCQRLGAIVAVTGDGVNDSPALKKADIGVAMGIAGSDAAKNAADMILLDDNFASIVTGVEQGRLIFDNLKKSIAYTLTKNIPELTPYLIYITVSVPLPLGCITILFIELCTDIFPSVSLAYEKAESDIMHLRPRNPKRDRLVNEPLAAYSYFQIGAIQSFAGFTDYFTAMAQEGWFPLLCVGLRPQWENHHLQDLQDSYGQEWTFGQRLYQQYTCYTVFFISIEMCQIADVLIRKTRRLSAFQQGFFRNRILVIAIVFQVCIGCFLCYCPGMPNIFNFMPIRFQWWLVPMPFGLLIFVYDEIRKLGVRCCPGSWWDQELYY
T1 sequence (P18434 whole entry partner): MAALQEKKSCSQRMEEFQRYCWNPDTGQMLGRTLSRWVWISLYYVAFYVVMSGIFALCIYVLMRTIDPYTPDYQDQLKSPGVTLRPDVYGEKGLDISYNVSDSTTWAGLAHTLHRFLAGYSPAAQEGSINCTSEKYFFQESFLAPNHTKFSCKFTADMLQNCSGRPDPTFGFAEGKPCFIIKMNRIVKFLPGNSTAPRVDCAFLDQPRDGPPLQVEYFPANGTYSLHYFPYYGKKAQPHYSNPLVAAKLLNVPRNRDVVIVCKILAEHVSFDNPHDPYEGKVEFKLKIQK

By Ki is commonly meant a dissociation constant, usually derived from enzyme kinetics or from competition with a known ligand. A high value points to lower affinity. `COc1cccc2c(N3CCc4ccccc4C3C)nc(Nc3ccc(F)cc3C)nc12.Cl` (centres unmarked) [Example 34, 8-Methoxy-2-(4-Fluoro-2-Methyl-Phenylamino)-4-(1-Methyl-1,2,3,4-Tetrahydroisoquinoline-2-Yl)Quinazoline Hydrochloride]: the “Competitive inhibition with K+ at the K+ binding site of proton pump” value is “inhibited competitively with K^+”. The molecule also yielded a Ki (Lineweaver-Burk, versus K+, pH 7.0) of 40 nM.

For the molecule `COc1ccc2[nH]c([S+]([O-])Cc3ncc(C)c(OC)c3C)nc2c1` (centres unmarked) [Omeprazole, omeprazole, reference compound], the “Competitive inhibition with K+ at the K+ binding site of proton pump” value is recorded as “did not inhibit competitively”. For the same molecule, where the note is “15 and 30 μM”, the “Inhibition overcome by increasing the concentration of KCl” value is reported as “not overcome by increasing the concentration of KCl” and the “Reaction speed in comparison with the control values” is “greatly reduced”.
